This is an account of results in PubChem BioAssay AID248 (DTP/NCI, 2004).

The test system of this assay is L1210 leukemia ip in BDF1 mice, survival T/C. Put plainly: NCI In Vivo Anticancer Drug Screen. Data for tumor model L1210 Leukemia (intraperitoneal) in B6D2F1 (BDF1) mice. Conditions: endpoint: mean survival time, higher = longer survival. In a few lines:
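Antitumor effect is assessed in tumor-bearing animals. Survival in the compound arm is compared with a vehicle-dosed control arm and expressed as their quotient.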

Setting [1] is: dose: 100.0 mg/kg/injection, schedule: Q04DX003 (ip), vehicle: saline.
The mark [2] stands for this setting: dose: 200.0 mg/kg/injection, schedule: Q04DX003 (ip), vehicle: saline.
The mark [3] stands for this setting: dose: 50.0 mg/kg/injection, schedule: Q01DX009 (ip), vehicle: saline with Tween-80.
[4] abbreviates: dose: 100.0 mg/kg/injection, schedule: Q04DX003 (ip), vehicle: saline with Tween-80.
Setting [5] is: dose: 100.0 mg/kg/injection, schedule: Q01DX001 (ip), vehicle: saline.
The mark [6] stands for this setting: dose: 200.0 mg/kg/injection, schedule: Q01DX001 (ip), vehicle: saline.
Where [7] appears, read: dose: 400.0 mg/kg/injection, schedule: Q01DX001 (ip), vehicle: saline.
Setting [8] is: dose: 50.0 mg/kg/injection, schedule: Q01DX001 (ip), vehicle: carboxymethylcellulose (CMC).
[9] abbreviates: dose: 100.0 mg/kg/injection, schedule: Q01DX001 (ip), vehicle: carboxymethylcellulose (CMC).
Where [10] appears, read: dose: 200.0 mg/kg/injection, schedule: Q01DX001 (ip), vehicle: carboxymethylcellulose (CMC).
The mark [11] stands for this setting: dose: 400.0 mg/kg/injection, schedule: Q01DX001 (ip), vehicle: carboxymethylcellulose (CMC).

Molecules are shown by their SMILES. Values joined by “and” are separate entries in the source; they are usually repeats but may differ in a detail not shown here. Equal values may be shown once. Inconclusive results and toxic doses are left out. Square brackets hold non-standard residues; d marks the D form. Peptide text beside a SMILES is read from it. ξ: configuration not given here. ξY = NC(Cc1ccc(O)cc1)C(=O)O

With `CS(=O)(=O)OCC(=O)NCCCNC(=O)COS(C)(=O)=O`, the T/C by setting is: (dose: 17.5 mg/kg/injection, schedule: Q01DX013 (ip), vehicle: other) 123 % of control; (dose: 18.8 mg/kg/injection, schedule: Q01DX015 (ip), vehicle: saline) 122 % of control; (dose: 35.0 mg/kg/injection, schedule: Q01DX013 (ip), vehicle: other) 121 % of control; (dose: 54.0 mg/kg/injection, schedule: Q01DX009 (ip), vehicle: saline) 166 % of control; (dose: 75.0 mg/kg/injection, schedule: Q01DX015 (ip), vehicle: saline) 155 % of control; (dose: 80.0 mg/kg/injection, schedule: Q01DX009 (ip), vehicle: saline) 175 % of control. Also, the T/C is, setting by setting: (dose: 120.0 mg/kg/injection, schedule: Q01DX009 (ip), vehicle: saline) 202 % of control; (dose: 150.0 mg/kg/injection, schedule: Q01DX015 (ip), vehicle: saline) 150 % of control; (dose: 180.0 mg/kg/injection, schedule: Q01DX009 (ip), vehicle: saline) 164 % of control and 195 % of control; (dose: 256.0 mg/kg/injection, schedule: Q01DX009 (ip), vehicle: saline) 118 % of control.

In the case of `CCCCN1CCSC1=S`, the T/C (dose: 100.0 mg/kg/injection, schedule: Q01DX009 (ip), vehicle: alcohol) was 93 % of control; the T/C (dose: 100.0 mg/kg/injection, schedule: Q04DX002 (ip), vehicle: alcohol) is 100 % of control; the T/C (dose: 200.0 mg/kg/injection, schedule: Q01DX009 (ip), vehicle: alcohol) was 96 % of control; the T/C (dose: 200.0 mg/kg/injection, schedule: Q04DX002 (ip), vehicle: alcohol) was 87 % of control; the T/C (dose: 400.0 mg/kg/injection, schedule: Q01DX009 (ip), vehicle: alcohol) is 86 % of control; the T/C (dose: 400.0 mg/kg/injection, schedule: Q04DX002 (ip), vehicle: alcohol) was 103 % of control.

Consider `OC(c1ccccc1)(c1ccccc1)C(F)(F)C(F)(F)C(F)(F)F`, for which the T/C is 89 % of control (dose: 222.0 mg/kg/injection, schedule: Q01DX Z (ip), vehicle: methylcellulose (MC)) and 96 % of control (dose: 333.0 mg/kg/injection, schedule: Q01DX Z (ip), vehicle: methylcellulose (MC)).

`Oc1ccc(Nc2ncnc3cc(Cl)ccc23)cc1CN(c1ccccc1)c1ccccc1`: the T/C is 102 % of control under setting [1] and 89 % of control under setting [2].

Consider `C=C(Br)CNC(=O)NCCCl`, for which the T/C runs as follows: (dose: 100.0 mg/kg/injection, schedule: Q01DX001 (ip), vehicle: Klucel (hydroxypropylcellulose) (HPC)) 90 % of control; (dose: 200.0 mg/kg/injection, schedule: Q01DX001 (ip), vehicle: Klucel (hydroxypropylcellulose) (HPC)) 96 % of control.

Turning to `NC(N)=N/N=C/c1ccc(F)cc1`, the T/C is, setting by setting: (dose: 15.0 mg/kg/injection, schedule: Q01DX Z (ip), vehicle: carboxymethylcellulose (CMC)) 95 % of control; (dose: 30.0 mg/kg/injection, schedule: Q01DX Z (ip), vehicle: carboxymethylcellulose (CMC)) 101 % of control; (dose: 60.0 mg/kg/injection, schedule: Q01DX Z (ip), vehicle: carboxymethylcellulose (CMC)) 100 % of control and 109 % of control; (dose: 120.0 mg/kg/injection, schedule: Q01DX Z (ip), vehicle: carboxymethylcellulose (CMC)) 97 % of control.

As to `NC(N)=N/N=C\c1ccc(C2CCNCC2)cc1`, the T/C is 107 % of control (dose: 15.0 mg/kg/injection, schedule: Q01DX Z (ip), vehicle: methylcellulose (MC)); 110 % of control (dose: 15.0 mg/kg/injection, schedule: Q01DX Z (oral), vehicle: methylcellulose (MC)); 108 % of control (dose: 30.0 mg/kg/injection, schedule: Q01DX Z (ip), vehicle: methylcellulose (MC)); 100 % of control (dose: 30.0 mg/kg/injection, schedule: Q01DX Z (oral), vehicle: methylcellulose (MC)); 104 % of control (dose: 60.0 mg/kg/injection, schedule: Q01DX Z (oral), vehicle: methylcellulose (MC)).

Turning to `CCN(C(C)C)C(C)C`, the T/C is, setting by setting: (dose: 25.0 mg/kg/injection, schedule: Q01DX009 (ip), vehicle: saline with Tween-80) 101 % of control; under setting [3], 106 % of control; (dose: 100.0 mg/kg/injection, schedule: Q01DX009 (ip), vehicle: saline with Tween-80) 96 % of control; under setting [4], 93 % of control.

For `O=Nc1ccc(/C=C/C(=O)O)cc1`, the T/C reads like this: (dose: 50.0 mg/kg/injection, schedule: Q01DX001 (ip), vehicle: saline) 102 % of control; under setting [5], 105 % of control; under setting [6], 100 % of control; under setting [7], 113 % of control.

With `NCC(=O)NC(Cc1ccc(O)cc1)C(=O)O` (configuration not stated) (H-Gly-[ξY]-OH), the T/C was 104 % of control under setting [5]; 105 % of control and 102 % of control under setting [6]; 98 % of control and 93 % of control under setting [7].

Consider `CCC1=CCC=CC1`, for which the T/C is 101 % of control under setting [8], 104 % of control under setting [9], 104 % of control under setting [10] and 109 % of control under setting [11].

Consider `CC(CO)(CO)N=Cc1cc(Br)ccc1O`, for which the T/C is 102 % of control under setting [9], 100 % of control under setting [10] and 86 % of control under setting [11].

In the case of `O=[N+]([O-])c1ccc(Cl)c2nonc12`, the T/C (dose: 1.65 mg/kg/injection, schedule: Q04DX002 (ip), vehicle: Klucel (hydroxypropylcellulose) (HPC)) is 89 % of control; the T/C (dose: 3.12 mg/kg/injection, schedule: Q04DX002 (ip), vehicle: Klucel (hydroxypropylcellulose) (HPC)) is 92 % of control; the T/C (dose: 6.25 mg/kg/injection, schedule: Q04DX002 (ip), vehicle: Klucel (hydroxypropylcellulose) (HPC)) is 94 % of control.

For the compound `O=C(O)/C(Cl)=C(/Cl)C(Cl)=C(Cl)Cl`, the T/C under setting [3] is 97 % of control.

Take `C/C(C(=O)O)=C(/Cl)c1c(C)cc(C)c(Br)c1C`: the T/C (dose: 100.0 mg/kg/injection, schedule: Q01DX001 (ip), vehicle: gum acacia) was 89 % of control; the T/C (dose: 100.0 mg/kg/injection, schedule: Q01DX009 (ip), vehicle: gum acacia) was 108 % of control; the T/C (dose: 200.0 mg/kg/injection, schedule: Q01DX001 (ip), vehicle: gum acacia) is 93 % of control; the T/C (dose: 200.0 mg/kg/injection, schedule: Q01DX009 (ip), vehicle: gum acacia) is 105 % of control; the T/C (dose: 400.0 mg/kg/injection, schedule: Q01DX001 (ip), vehicle: gum acacia) was 91 % of control.

As for `C[Si](C)(CCl)c1ccccc1`, the T/C reads like this: under setting [1], 107 % of control; under setting [2], 105 % of control; (dose: 400.0 mg/kg/injection, schedule: Q04DX003 (ip), vehicle: saline) 100 % of control.

For the compound `Cn1nc(N)c2nccnc21`, the T/C (dose: 50.0 mg/kg/injection, schedule: Q01DX009 (ip), vehicle: saline) is 98 % of control; the T/C (dose: 100.0 mg/kg/injection, schedule: Q01DX009 (ip), vehicle: saline) is 104 % of control; the T/C (dose: 100.0 mg/kg/injection, schedule: Q04DX003 (ip), vehicle: alcohol) was 100 % of control; the T/C (dose: 200.0 mg/kg/injection, schedule: Q04DX003 (ip), vehicle: alcohol) was 98 % of control.

As to `CN(C)Cc1cc(C(F)(F)F)ccc1C(O)(c1ccccc1)c1ccccc1`, the T/C by setting is: under setting [8], 110 % of control; under setting [9], 101 % of control; under setting [10], 101 % of control; under setting [11], 98 % of control.

`c1ccc([Si](C[CH2][Sn]([c]2ccccc2)([c]2ccccc2)[c]2ccccc2)(c2ccccc2)c2ccc([Si](C[CH2][Sn]([c]3ccccc3)([c]3ccccc3)[c]3ccccc3)(c3ccccc3)c3ccccc3)cc2)cc1`: the T/C is, setting by setting: under setting [4], 100 % of control; (dose: 200.0 mg/kg/injection, schedule: Q04DX003 (ip), vehicle: saline with Tween-80) 96 % of control; (dose: 400.0 mg/kg/injection, schedule: Q04DX003 (ip), vehicle: saline with Tween-80) 96 % of control.
